# Laboratory results published in US11512073B2, “Benzimidazole derivatives, pharmaceutical composition comprising the same, and use thereof” (Chongqing University of Arts and Sciences, priority 2020, dated 2022).
# Experiments:
# TNBC cells [1] = experiment: Cell counting assay with microscope; assay type: cell-based, Human; details: 48 h
# Description: FIG. 2A: cell viability was measured with the MTT assay. MDA-MB-231 and MDA-MB-468 cells were exposed to the indicated concentrations of compound 7a for 24, 48 and 72 h. FIGS. 2B and 2C: cell morphology and cell count of MDA-MB-231 and MDA-MB-468 cells were captured with microscope after treating with the indicated concentrations of compound 7a for 48 h. These cells were visualized with the images and quantitated by histogram, Scale bar, 100 μm. FIGS. 2D and 2E: colony formation assay was performed to evaluate TNBC growth in vitro after treatment with the indicated concentrations of compound 7a for 14 days. The colonies were visualized with the images and quantitated by histogram.
# HCT116 cells = experiment: mCherry-GFP-LC3B reporter autophagic flux assay; assay type: cell-based; details: 12 h treatment, versus control
# Description: Mcherry-EGFP-LC3B overexpression system was co-transfected with lenviral packaging vectors pSPAX2 and pMD2G into HEK293FT cells using Fugene Transfection Reagent (Promega, MW, USA). Virus particles were collected after 48 h infection, filtered through a 0.22 μm membrane, added into colorectal cancer cell HCT116, and then incubated for 12 h at 37° C. The medium was replaced and HCT116 cells were selected for puromycin tolerance (10 μg/mL) to obtain the stable cells expressing mcherry-EGFP-LC3B.
# [2] = system: MDA-MB-231 and MDA-MB-468 cells; experiment: Cell cycle analysis by flow cytometry; assay type: cell-based, Human; details: 48 h
# Description: (§1) Cells in a logarithmic growth phase were harvested and seeded into six-well plates with 30% cell density and cultured overnight in an incubator. Once adhered to the bottom of the plate, cells were treated with different doses of compound 7a for 48 h, and then employed in flow cytometry analysis. For cell cycle assay, the collected cells were washed with phosphate-buffered saline (PBS) and fixed with 70% cold ethanol in 4° C. for 24 h. After washing three times of PBS, the fixed cells were incubated in 200 μL PBS solution containing 1 μL propidium iodide (BD, CA, USA) and 1 μL RNase (Sigma Aldrich, USA) at 37° C. for 0.5 h. Finally, cells were analyzed using BD Accuri™ C6 flow cytometry (BD Biosciences, USA). For the cell apoptosis assay, after the cells were harvested and washed twice with PBS, the percentage of apoptotic cells were measured using an Annexin V-FITC/PI Apoptosis Assay Kit (BD Biosciences, USA). The BD Accuri™ C6 flow cytometry was used to analyze the apoptosis process. The FlowJo software was used to analyze the cell cycle arrest and apoptotic rate.
# [3] = system: MDA-MB-231 and MDA-MB-468 cells; experiment: Colony forming assay; assay type: cell-based, Human; details: 0, 5, 10, 20 μmol/L
# Description: MAD-MB-231 and MDA-MB-468 cells were seeded in a six-well plate at 1000 cells/well and treated with various concentrations of compound 7a (0, 5, 10, 20 μmol/L) for 48 h. After discarding the supernatant, the cells were cultured with fresh medium for 15 days until formed the visible colonies. Finally, colonies were fixed with 4% paraformaldehyde (PFA) and stained with crystal violet for 30 min to enable enumeration of colonies.
# MDA-MB-468 cells = experiment: Annexin V-FITC/PI apoptosis assay by flow cytometry; assay type: cell-based, Human; details: 48 h, dose-dependent; from 5.02% in control; p<0.01
# Description: as §1
# MDA-MB-231 cells = experiment: as above; assay type: cell-based, Human; details: 48 h, dose-dependent; from 3.64% in control; p<0.01
# Description: as §1
# TNBC cells [4] = experiment: Ki67-staining immunofluorescence; assay type: cell-based, Human; details: 48 h, versus controls
# Description: Cells were plated on glass coverslips in 24-well plates prior to treatment. After being exposed to different doses of compound 7a for 48 h, cells were washed with PBS for three times, fixed with 4% paraformaldehyde-PBS for 30 min, and then followed by permeabilization with 0.1% Triton X-100 for 10 min. Next, the samples were blocked with QuickBlock Blocking Buffer for Immunol Staining (Beyotime) for 30 min at 37° C., and incubated with anti-Ki67 (1:250), anti-LC3B antibody (1:250), anti-SQSTM1 antibody (1:250) or anti-γH2AX (1:250) overnight at 4° C. After washing with PBS three times, the stained cells were incubated with Alexa Fluor-conjugated secondary antibodies (1:2000) for 1 hour at room temperature. Moreover, 1 mg/mL DAPI dissolved in PBS were employed to label nuclei (30 min). Images were captured with a High Content analysis system (Perkinelmer, MA, USA).
# [5] = system: MDA-MB-231 and MDA-MB-468 cells; experiment: Immunoblotting of cell cycle, apoptosis, autophagy and DDR proteins; assay type: cell-based, Human
# Description: MDA-MB-231 and MDA-MB-468 cells were treated with the compound 7a (0, 5, 10 and 20 μmol/L) for 48 h, total protein was extracted using RIPA buffer (Beyotime, Shanghai, China) supplemented with protease/phosphatase inhibitor cocktail (Roche, Mannheim, Germany) at 4° C. for 30 min. The protein concentration was quantified by the BCA protein assay kit (Beyotime). Protein samples (50 μg) were separated by SDS-PAGE with appropriate gel concentration and subsequent electrophoretically transferred onto PVDF membranes (Millipore Corporation, MA, USA). After blocking with 5% BSA for 2 h at ambient temperature, the membranes sections were incubated gently with the indicated primary antibodies overnight at 4° C. and washed with TBST for 5×5 minutes. Subsequently, the membranes were then incubated with corresponding IRDye 800CW goat anti-mouse IgG (H+L) or IRDye 680LT donkey anti-rabbit IgG (H+L) secondary antibody for 1 h. The objective protein signal was obtained using an odyssey two-color infrared fluorescence imaging system (Li-cor, NE, USA). For immunoprecipitation, harvested cells were lysed in ice-cold NP-40 buffer including 50 mM Tris-HCl (pH 7.4), 150 mM NaCl, 0.5% NP-40, 1 mM Na3VO4, 50 mM NaF and protease inhibitor cocktail (Roche). Lysate was centrifuged at 12,000×g for 20 min at 4° C. The supernatant was incubated with anti-HA at 4° C. overnight, followed by incubation with Protein-A/G beads overnight (Beyotime). The proteins were washed six times with ice-cold NP-40 buffer and eluted with SDS loading buffer containing mercaptoethanol by boiling for 10 min.
smiles,measurement,setting,value
O=C(NC1CCCCC1)c1[nH]cnc1-c1nc2ccccc2[nH]1 [Compound 7a],proliferation by cell count,TNBC cells [1],significantly inhibited proliferation of TNBC cells
same,number of yellow fluorescent vesicles (autophagosomes),HCT116 cells,significant increase in the number of yellow fluorescent vesicles
same,cell cycle distribution,[2],induced cell cycle arrest at S-phase
same,colony formation,[3],smaller and decreased colony numbers
same,proportion of late-phase apoptosis,MDA-MB-468 cells,36.4%
same,proportion of late-phase apoptosis,MDA-MB-231 cells,34.2%
same,rate of Ki67-positive cells,TNBC cells [4],notably reduced rate of Ki67-positive cells
same,p62 level,[5]; TNBC cells,resulted in a p62 accumulation
same,"expression of BRCA2, RAD51 and RNF8",[5]; immunoblotting,significantly reduced
same,levels of BRCA2 and RAD51,[5]; immunoblotting,dramatically decreased levels of both proteins in a dose-dependent manner
same,"phosphorylation of ATM, NBS1 and SMC1",[5]; immunoblotting,activated
same,p62 in nuclear and cytoplasmic proteins,[5]; immunoblotting of fractions,drastic p62 increase in the nucleus and cytoplasm in a dose-dependent manner
same,P21 and phosphorylation levels of CHK1 (Serine 345) and CHK2 (Threonine 68),"[5]; immunoblotting, 48 h",increased P21 and the phosphorylation levels of CHK1 (Serine 345) and CHK2 (Threonine 68) in a dose-dependent manner
same,anti-apoptotic protein Bcl-2,"[5]; immunoblotting, 48 h",decrease of anti-apoptotic protein Bcl-2
same,"cytochrome c, cleaved caspase-3, cleaved caspase-9 and cleaved PARP","[5]; immunoblotting, 48 h",increased in a dose-dependent manner
same,"levels of Cyclin A, Cyclin B, CDK1 and CDK2","[5]; immunoblotting, 48 h","decreased the levels of Cyclin A, Cyclin B, CDK1 and CDK2"
same,"pro-apoptotic proteins Bak, Bim and Bax","[5]; immunoblotting, 48 h",elevated in a dose-dependent manner
same,γH2AX level,"[5]; immunoblotting, dose-dependent",significantly increased
same,conversion to LC3B-II,"[5]; immunofluorescence and western blotting, dose- and time-dependent",significantly induced
